The compounds below were run against Human immunodeficiency virus type 1 protease (Human immunodeficiency virus 1, UniProt Q72874) (assay: Inhibition of recombinant HIV-1 protease).

Ki [µM]	Structure (SMILES)
0.033	NC(=O)C[C@H](NC(=O)c1ccc2ccccc2n1)C(=O)NC(Cc1ccccc1)[C@@H](O)CCC(=O)NC(c1cccc(C(F)(F)F)c1)c1cc2ccccc2[nH]1 (some centres undefined)
0.043	NC(=O)C[C@H](NC(=O)c1ccc2ccccc2n1)C(=O)NC(Cc1ccccc1)[C@@H](O)CCC(=O)NC(c1ccccc1)c1cc2ccccc2[nH]1 (some centres undefined)
1.28	NC(=O)C[C@H](NC(=O)c1ccc2ccccc2n1)C(=O)NC(Cc1ccccc1)[C@@H](O)C[C@@H](Cc1ccccc1)C(=O)NC(c1ccccc1)c1cc2ccccc2[nH]1 (some centres undefined)
0.48	NC(=O)C[C@H](NC(=O)c1ccc2ccccc2n1)C(=O)NC(Cc1ccccc1)[C@@H](O)CCC(=O)NC(c1ccccc1)c1nc2ccccc2[nH]1 (some centres undefined)
0.18	NC(=O)C[C@H](NC(=O)c1ccc2ccccc2n1)C(=O)NC(Cc1ccccc1)[C@@H](O)CCC(=O)NC(c1cc2ccccc2[nH]1)C1CCCCC1 (some centres undefined)
0.018	COC(=O)[C@@H](CC(=O)[C@@H](NC(=O)CC[C@H](O)[C@H](Cc1ccccc1)NC(=O)[C@H](C)NC[C@H](C)N)C(C)C)C(C)C
0.039	Cc1cccc(C(NC(=O)CC[C@H](O)C(Cc2ccccc2)NC(=O)[C@H](CC(N)=O)NC(=O)c2ccc3ccccc3n2)c2cc3ccccc3[nH]2)c1 (some centres undefined)

Structure (SMILES)	Ki [µM]
C[C@H](N)C(=O)N[C@@H](C)C(=O)N[C@@H](Cc1ccccc1)[C@@H](O)CCC(=O)NC(c1ccccc1)c1cc2ccccc2[nH]1 (some centres undefined)	0.2
CC(C)CC(=O)N[C@H](C(=O)N[C@H](C(=O)N[C@@H](CC(C)C)[C@@H](O)CC(=O)N[C@@H](C)C(=O)N[C@@H](CC(C)C)[C@@H](O)CC(=O)O)C(C)C)C(C)C [PEPSTATIN]	3.1

Reference: ChEMBL document CHEMBL1127584, “Crystal-structure-based design and synthesis of novel C-terminal inhibitors of HIV protease” (J Med Chem, 1994)
